Test results: US11434258B2, “Compounds (immunorhelins)” (ISR IMMUNE SYSTEM REGULATION HOLDING AB (PUBL), priority 2017, dated 2022)
Non-standard residues stand in square brackets, D forms with d. Residues, ends and D or L forms follow the SMILES beside them. *: point of attachment. d2Nal = N[C@H](Cc1ccc2ccccc2c1)C(=O)O; pGlu = O=C1CC[C@@H](C(=O)O)N1; tBu = CC(C)(C)*

What was measured:
GnRHR = molecular target: T1, GnRHR (Homo sapiens, UniProt P30968); assay: Calcium assay in CHO-K1 cells (Genscript), FLIPR; format: cell-based; settings: CHO-K1/GnRHR/Ga15 cells, relative to agonist control, read-out: GNRHR Stimulation at 1 μM
T1 construct: host or cells: CHO-K1 (CHO-K1/GnRHR/Ga15)
T1 sequence (P30968 1-328): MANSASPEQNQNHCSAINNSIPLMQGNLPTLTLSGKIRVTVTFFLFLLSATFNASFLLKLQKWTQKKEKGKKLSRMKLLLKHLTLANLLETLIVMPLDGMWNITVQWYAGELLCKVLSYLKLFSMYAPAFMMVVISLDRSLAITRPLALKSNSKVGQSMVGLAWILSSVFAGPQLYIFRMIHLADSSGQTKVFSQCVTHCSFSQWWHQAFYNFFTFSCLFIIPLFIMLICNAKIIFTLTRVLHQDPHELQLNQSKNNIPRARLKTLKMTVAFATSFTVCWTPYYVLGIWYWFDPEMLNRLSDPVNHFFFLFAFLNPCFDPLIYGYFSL
Description: Test article sample solutions were dissolved in HBSS buffer (with 20 mM HEPES buffer, pH 7.4) to form the 5× working solution. FLIPR® Calcium 4 assay kit from Molecular devices (R8141) was used as required. In brief, CHO-K1 cells expressing GnRHR (CHO-K1/GnRHR/Ga15, Genscript accession NM_000406) were respectively cultured in the 10-cm dishes and maintained at 37° C./5% CO2. CHO-K1 cells expressing GNRHR were respectively seeded in a 384-well black-wall, clear-bottom plate at a density of 15,000 cells per well in 20 μl of growth medium about 18 hours prior to the day of experiment and maintained at 37° C./5% CO2. Then, 20 μl of dye loading solution was added into the wells and the plates were subsequently placed into a 37° C. incubator for 60 minutes, followed by a 15 minutes' incubation at room temperature. At last, 10 μl of compounds or control agonist were added into respective wells of the assay plate during reading in FLIPR. The plate containing 5× compound and control agonist solution was placed in FLIPR. Solutions were added into the cell plate automatically at the 20 seconds and the fluorescence signal was monitored for an additional 100 seconds (21 sec to 120 sec.). Data were recorded by ScreenWorks (version 3.1) as FMD files with FLIPR and stored on the GenScript computer network for off-line analysis. Data acquisition and analyses was performed using ScreenWorks (version 3.1) program and exported to Excel. The average value of the first 20 seconds' reading was calculated as the baseline and the relative fluorescent units (ΔRFU) intensity values were calculated by subtracting the average value of baseline from the maximum fluorescent units (21 s to 120 s).
The % Stimulation was calculated with the following equation: % Stimulation=(ΔRFUCompound−ΔRFUBackground)/(ΔRFUAgonist control−ΔRFUBackground)×100
Dose response curves were fitted with four-parameter-logistic-equation by the software GraphPad Prism 6.
Equation: four parameter logistic equation. Y=Bottom+(Top-Bottom)/(1+10^((Log EC50−X)×Hillslope))
X is the logarithm of concentration. Y is the response.

[1] = Stability in aqueous media (PBS pH 7.4); format: physicochemical; parameters: unit not given here; settings: phosphate buffer solution (PBS); PBS pH 7.4, 37° C., samples at T=0, 4, 24, 96 h; read-out: Stability grading (t1/2)
Source text: LC/MS data was collected for compound identity.

Row | SMILES | activation at 1 µM (GnRHR) | half-life at 0.2 mg/ml [1]
1 | CCNC(=O)[C@@H]1CCCN1C(=O)[C@H](CCCNC(=N)N)NC(=O)[C@H](CC(C)C)NC(=O)[C@@H](COC(C)(C)C)NC(=O)[C@H](Cc1ccc(O)cc1)NC(=O)[C@H](CO)NC(=O)[C@H](Cc1c[nH]c2ccccc12)NC(=O)[C@H](Cc1cnc[nH]1)NC(=O)[C@@H]1CCC(=O)N1 [Buserelin, reference compound] | 94% | –
2 | CCNC(=O)[C@@H]1CCCN1C(=O)[C@H](CCCNC(=N)N)NC(=O)[C@H](Cc1c[nH]c2ccccc12)NC(=O)[C@@H](COC(C)(C)C)NC(=O)[C@H](Cc1ccc(O)cc1)NC(=O)[C@H](CO)NC(=O)[C@H](Cc1c[nH]c2ccccc12)NC(=O)[C@H](Cc1c[nH]cn1)NC(=O)[C@@H]1CCC(=O)N1 [Compound 8, pGlu-His-Trp-Ser-Tyr-D-Ser(tBu)-Trp-Arg-Pro-NHEt] ([pGlu]HWSY[dS](tBu)WRP-NHEt) | 86% | > 96
3 | CCNC(=O)[C@@H]1CCCN1C(=O)[C@H](Cc1ccc(O)cc1)NC(=O)[C@H](Cc1c[nH]c2ccccc12)NC(=O)[C@@H](COC(C)(C)C)NC(=O)[C@H](Cc1ccc(O)cc1)NC(=O)[C@H](CO)NC(=O)[C@H](Cc1c[nH]c2ccccc12)NC(=O)[C@H](Cc1c[nH]cn1)NC(=O)[C@@H]1CCC(=O)N1 [Compound 12, pGlu-His-Trp-Ser-Tyr-D-Ser(tBu)-Trp-Tyr-Pro-NHEt] ([pGlu]HWSY[dS](tBu)WYP-NHEt) | 80% | > 96
4 | CCNC(=O)[C@@H]1CCCN1C(=O)[C@H](Cc1ccc(O)cc1)NC(=O)[C@H](Cc1c[nH]c2ccccc12)NC(=O)[C@@H](COC(C)(C)C)NC(=O)[C@H](Cc1c[nH]cn1)NC(=O)[C@H](CO)NC(=O)[C@H](Cc1c[nH]c2ccccc12)NC(=O)[C@H](Cc1c[nH]cn1)NC(=O)[C@@H]1CCC(=O)N1 [Compound 13, pGlu-His-Trp-Ser-His-D-Ser(tBu)-Trp-Tyr-Pro-NHEt] ([pGlu]HWSH[dS](tBu)WYP-NHEt) | 87% | > 96
5 | CC(C)C[C@H](NC(=O)[C@@H](Cc1c[nH]c2ccccc12)NC(=O)[C@H](Cc1ccc(O)cc1)NC(=O)[C@H](CO)NC(=O)[C@H](Cc1c[nH]c2ccccc12)NC(=O)[C@H](Cc1c[nH]cn1)NC(=O)[C@@H]1CCC(=O)N1)C(=O)N[C@@H](Cc1ccc(O)cc1)C(=O)N1CCC[C@H]1C(=O)NCC(N)=O [Compound 14, pGlu-His-Trp-Ser-Tyr-D-Trp-Leu-Tyr-Pro-Gly-amide] ([pGlu]HWSY[dW]LYPG-NH2) | 78% | > 96
6 | CC(C)C[C@H](NC(=O)[C@@H](Cc1c[nH]c2ccccc12)NC(=O)[C@H](Cc1c[nH]cn1)NC(=O)[C@H](CO)NC(=O)[C@H](Cc1c[nH]c2ccccc12)NC(=O)[C@H](Cc1c[nH]cn1)NC(=O)[C@@H]1CCC(=O)N1)C(=O)N[C@@H](Cc1ccc(O)cc1)C(=O)N1CCC[C@H]1C(=O)NCC(N)=O [Compound 16, pGlu-His-Trp-Ser-His-D-Trp-Leu-Tyr-Pro-Gly-amide] ([pGlu]HWSH[dW]LYPG-NH2) | 76% | > 96
7 | N=C(N)NCCC[C@H](NC(=O)[C@H](Cc1c[nH]c2ccccc12)NC(=O)[C@@H](Cc1c[nH]c2ccccc12)NC(=O)[C@H](Cc1c[nH]cn1)NC(=O)[C@H](CO)NC(=O)[C@H](Cc1c[nH]c2ccccc12)NC(=O)[C@H](Cc1c[nH]cn1)NC(=O)[C@@H]1CCC(=O)N1)C(=O)N1CCC[C@H]1C(=O)NCC(N)=O [Compound 20, pGlu-His-Trp-Ser-His-D-Trp-Trp-Arg-Pro-NHEt] | 75% | > 96
8 | CC(C)C[C@H](NC(=O)[C@@H](Cc1ccc2ccccc2c1)NC(=O)[C@H](Cc1ccc(O)cc1)NC(=O)[C@H](CO)NC(=O)[C@H](Cc1c[nH]c2ccccc12)NC(=O)[C@H](Cc1c[nH]cn1)NC(=O)[C@@H]1CCC(=O)N1)C(=O)N[C@@H](Cc1ccc(O)cc1)C(=O)N1CCC[C@H]1C(=O)NCC(N)=O [Compound 25, pGlu-His-Trp-Ser-Tyr-D-Nal-Leu-Tyr-Pro-Gly-amide] ([pGlu]HWSY[d2Nal]LYPG-NH2) | 82% | < 96
9 | CC(C)C[C@H](NC(=O)[C@@H](Cc1ccc2ccccc2c1)NC(=O)[C@H](Cc1c[nH]cn1)NC(=O)[C@H](CO)NC(=O)[C@H](Cc1c[nH]c2ccccc12)NC(=O)[C@H](Cc1c[nH]cn1)NC(=O)[C@@H]1CCC(=O)N1)C(=O)N[C@@H](Cc1ccc(O)cc1)C(=O)N1CCC[C@H]1C(=O)NCC(N)=O [Compound 28, pGlu-His-Trp-Ser-His-D-Nal-Leu-Tyr-Pro-Gly-amide] ([pGlu]HWSH[d2Nal]LYPG-NH2) | 95% | > 96
10 | NC(=O)CNC(=O)[C@@H]1CCCN1C(=O)[C@H](Cc1ccc(O)cc1)NC(=O)[C@H](Cc1c[nH]c2ccccc12)NC(=O)[C@@H](Cc1ccc2ccccc2c1)NC(=O)[C@H](Cc1c[nH]cn1)NC(=O)[C@H](CO)NC(=O)[C@H](Cc1c[nH]c2ccccc12)NC(=O)[C@H](Cc1c[nH]cn1)NC(=O)[C@@H]1CCC(=O)N1 [Compound 33, pGlu-His-Trp-Ser-His-D-Nal-Trp-Tyr-Pro-Gly-amide] ([pGlu]HWSH[d2Nal]WYPG-NH2) | 67% | < 96
11 | CCNC(=O)[C@@H]1CCCN1C(=O)[C@H](CCCNC(=N)N)NC(=O)[C@H](Cc1c[nH]c2ccccc12)NC(=O)[C@@H](CC(C)C)NC(=O)[C@H](Cc1ccc(O)cc1)NC(=O)[C@H](CO)NC(=O)[C@H](Cc1c[nH]c2ccccc12)NC(=O)[C@H](Cc1c[nH]cn1)NC(=O)[C@@H]1CCC(=O)N1 [Compound 44, pGlu-His-Trp-Ser-Tyr-D-Leu-Trp-Arg-Pro-NHEt] ([pGlu]HWSY[dL]WRP-NHEt) | 111% | > 96
12 | CCNC(=O)[C@@H]1CCCN1C(=O)[C@H](Cc1ccc(O)cc1)NC(=O)[C@H](CC(C)C)NC(=O)[C@@H](CC(C)C)NC(=O)[C@H](Cc1ccc(O)cc1)NC(=O)[C@H](CO)NC(=O)[C@H](Cc1c[nH]c2ccccc12)NC(=O)[C@H](Cc1c[nH]cn1)NC(=O)[C@@H]1CCC(=O)N1 [Compound 45, pGlu-His-Trp-Ser-Tyr-D-Leu-Leu-Tyr-Pro-NHEt] ([pGlu]HWSY[dL]LYP-NHEt) | 105% | > 96
13 | CCNC(=O)[C@@H]1CCCN1C(=O)[C@H](Cc1ccc(O)cc1)NC(=O)[C@H](CC(C)C)NC(=O)[C@@H](CC(C)C)NC(=O)[C@H](Cc1c[nH]cn1)NC(=O)[C@H](CO)NC(=O)[C@H](Cc1c[nH]c2ccccc12)NC(=O)[C@H](Cc1c[nH]cn1)NC(=O)[C@@H]1CCC(=O)N1 [Compound 48, pGlu-His-Trp-Ser-His-D-Leu-Leu-Tyr-Pro-NHEt] ([pGlu]HWSH[dL]LYP-NHEt) | 118% | > 96
14 | CC(C)C[C@H](NC(=O)CNC(=O)[C@H](Cc1ccc(O)cc1)NC(=O)[C@H](CO)NC(=O)[C@H](Cc1c[nH]c2ccccc12)NC(=O)[C@H](Cc1cnc[nH]1)NC(=O)[C@@H]1CCC(=O)N1)C(=O)N[C@@H](CCCNC(=N)N)C(=O)N1CCC[C@H]1C(=O)NCC(N)=O [Gonadorelin, reference compound] | 102% | –
15 | CC(C)C[C@H](NC(=O)[C@@H](COC(C)(C)C)NC(=O)[C@H](Cc1ccc(O)cc1)NC(=O)[C@H](CO)NC(=O)[C@H](Cc1c[nH]c2ccccc12)NC(=O)[C@H](Cc1cnc[nH]1)NC(=O)[C@@H]1CCC(=O)N1)C(=O)N[C@@H](CCCNC(=N)N)C(=O)N1CCC[C@H]1C(=O)NNC(N)=O [Goserelin] | 99% | –
16 | CCNC(=O)[C@@H]1CCCN1C(=O)[C@H](CCCNC(=N)N)NC(=O)[C@H](CC(C)C)NC(=O)[C@@H](CC(C)C)NC(=O)[C@H](Cc1ccc(O)cc1)NC(=O)[C@H](CO)NC(=O)[C@H](Cc1c[nH]c2ccccc12)NC(=O)[C@H](Cc1c[nH]cn1)NC(=O)[C@@H]1CCC(=O)N1 [Leuprorelin, reference compound] | 107% | –
17 | CC(C)C[C@H](NC(=O)[C@@H](Cc1ccc2ccccc2c1)NC(=O)[C@H](Cc1ccc(O)cc1)NC(=O)[C@H](CO)NC(=O)[C@H](Cc1c[nH]c2ccccc12)NC(=O)[C@H](Cc1c[nH]cn1)NC(=O)[C@@H]1CCC(=O)N1)C(=O)N[C@@H](CCCNC(=N)N)C(=O)N1CCC[C@H]1C(=O)NCC(N)=O [Nafarelin, reference compound] | 100% | –
